Series [1] deals with Rhizomucor miehei IHEM13391. Put plainly: Antifungal activity in vitro (resazurin susceptibility screen), Inf. K. Particulars: Rhizomucor miehei, IHEM13391, Rhizomucor miehei IHEM13391; 37 °C, 48 hours, resa time 17 hours. It is filed as cell-based. In short, it runs like this: (§1)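 Serial dilutions were tested up to 64 μM in RPMI-1640 with L-glutamine and 2% glucose, MOPS-buffered at pH 7.0, against an inoculum of 10^3 cfu per well. Incubation lasted from 24 h at 37° C. for yeasts to a week or more at 27° C. for dermatophytes. Growth was then read fluorimetrically after resazurin (ex 550/em 590 nm).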
On the technique in general: Resazurin is reduced to fluorescent resorufin, in cell work by metabolically active cells.

Series [2] is described as follows: In vivo pharmacokinetic determinations (bioavailability) in guinea pigs. As to conditions: guinea pig, po. The procedure: (§2) Three animals (mean weight 20±7 g for mice and 275±20 for Guinea pigs) were used per dose route, time point and formulation.
(§3) For the oral (PO) solution formulation, compound was dissolved in a 20% hydroxypropyl-β-cyclodextrin (HP-β-CD) solution at a final concentration of 1 mg/ml. HCl was added to facilitate dissolution. After dissolution, the pH was brought up to 3.7 with NaOH. Mannitol was added to make the solution isotonic. For the PO suspension formulation, compound was suspended in 0.5% methocel at a final concentration of 1 mg/ml. The formulations were stored at room temperature, protected from light and analysed quantitatively with LC-MS/MS on the day of preparation. Stability of the formulations was checked on the day of dosing.
(§4) The animals were dosed orally by gastric intubation at 10 ml/kg to obtain a final dose 10 mg/kg. Three dosed animals were sacrificed for blood sampling at 15 and 30 min, 1, 2, 3, 4, 6, 8 and 24 h after PO dose administration as a solution and at 30 min, 1, 2, 4, 6, 8 and 24 h after PO dose administration as a suspension.
(§5) Blood was collected by multiple sampling from a tail vein into Multivette® 600 K3E tubes (Sarstedt). Samples were placed immediately at approximately 4° C. and plasma was obtained following centrifugation at 4° C. for 10 minutes at approximately 1900×g. All samples were shielded from daylight and stored at ≦−18° C. prior to analysis.
(§6) Plasma samples were analysed for dosed compound using a qualified research LC-MS/MS method. The key analytical performance (linearity, upper and lower limit of quantification, accuracy and precision) of the method was reported together with the plasma concentrations.
(§7) A limited pharmacokinetic analysis was performed using WinNonlin™ Professional (Version 5.2.1). A non-compartmental analysis using the lin/log trapezoidal rule with lin/log interpolation was used for all data.

The subject of series [3] is Trichophyton rubrum B68183. The experiment in a line: Antifungal activity in vitro (resazurin susceptibility screen), Inf. C. Particulars: Trichophyton rubrum, B68183, Trichophyton rubrum B68183; 27 °C, 7 days, resa time 24 hours. It is filed as cell-based. In short, it runs like this:
as §1

In the next series the test system is Microsporum canis B68128. Put plainly: Antifungal activity in vitro (resazurin susceptibility screen), Inf. B. Format: cell-based. Particulars: Microsporum canis, B68128, Microsporum canis B68128; 27 °C, 9 days, resa time 24 hours. In short, it runs like this:
as §1

Another series in a line: in vivo. The arrangement: species or system mice. Particulars: mouse, po, 10 mg/kg. The procedure: as §2, §3, §4, §5, §6, §7
Series [4] has as its system Scedosporium apiospermum IHEM3817. The experiment in a line: Antifungal activity in vitro (resazurin susceptibility screen), Inf. H. Format: cell-based. As to conditions: Scedosporium apiospermum, IHEM3817, Scedosporium apiospermum IHEM3817; 37 °C, 48 hours, resa time 17 hours. Summed up:
as §1

Series [5] has as its system Aspergillus fumigatus B42928. The experiment in a line: Antifungal activity in vitro (resazurin susceptibility screen), Inf. E. Particulars: Aspergillus fumigatus, B42928, Aspergillus fumigatus B42928; 27 °C, 48 hours, resa time 17 hours. It is filed as cell-based. In short, it runs like this:
as §1

Another series has as its system Rhizopus oryzae IHEM5223. The experiment in a line: Antifungal activity in vitro (resazurin susceptibility screen), Inf. J. It is filed as cell-based. Particulars: Rhizopus arrhizus, 37 °C, 24 hours, resa time 6 hours. Summed up:
as §1

Series [6] relates to Cryptococcus neoformans B66663. The experiment in a line: Antifungal activity in vitro (resazurin susceptibility screen), Inf. F. It is filed as cell-based. Particulars: Cryptococcus neoformans, B66663, Cryptococcus neoformans B66663; 37 °C, 24 hours, resa time 4 hours. Summed up: as §1

`CC(F)(F)c1ccc(C2=NCc3c(Cl)cccc3-n3cccc32)cc1` [Compound 4, 7-chloro-4-[4-(1,1-difluoroethyl)phenyl]-6H-pyrrolo[1,2-a][1,4]benzodiazepine] yielded a melting point of 215.2 to 217.6 °C. The IC50 in series [1] is greater than 64600 nM. Moreover, the bioavailability in series [2] stood at 35%. In addition, the IC50 in [3] is 234 nM. The compound further had an IC50 with Microsporum canis B68128 of 479 nM. In the series “in vivo”, this compound yielded a bioavailability of 20%. The compound also showed an IC50 in series [4] greater than 64600 nM. In addition, the IC50 in series [5] is 2240 nM. Moreover, the IC50 in the series on Rhizopus oryzae IHEM5223 is greater than 64600 nM. In [6], this compound gave an IC50 of 21400 nM.

Usually IC50 stands for the concentration that inhibits the measured activity by half. Low readings indicate inhibition by little substance, high ones a need for much substance. What is called bioavailability is the share of a dose that reaches the circulation, judged against a reference dose that is usually intravenous. A high value points to good availability. For orientation: melting point means the temperature, or range, at which the solid turns liquid.
